The results in this text go back to ChEMBL document CHEMBL4371025, “Discovery and evaluation of novel FAAH inhibitors in neuropathic pain model” (Bioorg Med Chem Lett, 2019).

pIC50: −log10 of the molar value.

For data set [1], the target named is T1, Fatty-acid amide hydrolase 1 (Rattus norvegicus, UniProt P97612).
T1 sequence (P97612 whole entry): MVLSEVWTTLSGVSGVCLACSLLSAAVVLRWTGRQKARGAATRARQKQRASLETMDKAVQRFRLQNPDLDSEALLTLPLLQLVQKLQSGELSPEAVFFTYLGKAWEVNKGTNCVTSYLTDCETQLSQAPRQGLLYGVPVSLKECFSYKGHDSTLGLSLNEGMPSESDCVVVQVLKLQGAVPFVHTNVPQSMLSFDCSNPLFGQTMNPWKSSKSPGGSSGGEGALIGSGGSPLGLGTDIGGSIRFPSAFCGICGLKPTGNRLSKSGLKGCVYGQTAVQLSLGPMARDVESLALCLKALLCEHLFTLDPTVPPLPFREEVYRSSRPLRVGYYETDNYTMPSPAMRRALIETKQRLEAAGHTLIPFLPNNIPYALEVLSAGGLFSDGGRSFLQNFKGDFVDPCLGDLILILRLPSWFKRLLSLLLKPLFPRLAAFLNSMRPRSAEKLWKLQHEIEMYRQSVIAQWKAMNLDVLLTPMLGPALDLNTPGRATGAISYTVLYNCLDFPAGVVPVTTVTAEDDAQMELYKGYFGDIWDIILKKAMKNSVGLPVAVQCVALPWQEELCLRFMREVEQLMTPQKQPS
The experiment in a line: Inhibition of rat FFAH expressed in Escherichia coli using AAMCA as substrate incubated for 1 min measured for 50 mins by fluorescence assay.

Data set [2] can be described thus: Oral bioavailability in Sprague-Dawley rat at 3 mg/kg administered as single dose via gavage by LC-MS/MS analysis. Type of data set: ADME, organism-based. The settings on record: in vivo.
A short description of data set [3]: Clearance in Sprague-Dawley rat at 1 mg/kg, iv administered as single dose by LC-MS/MS analysis. Type of data set: ADME, organism-based. The settings on record: in vivo.
Data set [4] in a line: AUC (0 to 48 hrs) in Sprague-Dawley rat at 1 mg/kg, iv administered as single dose by LC-MS/MS analysis. Further details: dose 1 mg/kg, time < 48 hr, route intravenous. The settings on record: in vivo. Type of data set: ADME, organism-based.
The nature of data set [5]: Volume of distribution at steady state in Sprague-Dawley rat at 1 mg/kg, iv administered as single dose by LC-MS/MS analysis. The class given is ADME, organism-based. The following applies: in vivo, read-out: Vdss.
Data set [6] can be described thus: Elimination half life in Sprague-Dawley rat at 1 mg/kg, iv administered as single dose by LC-MS/MS analysis. The settings on record: in vivo, read-out: beta t1/2 (converted). Type of data set: ADME, organism-based.
A short description of data set [7]: Intrinsic metabolic stability in human liver microsomes assessed as metabolic turnover rate per mg protein at 1 uM preincubated for 5 mins followed by NADPH cofactor addition and measured after 30 mins by LC-MS/MS analysis. The settings on record: 0.5 h. Type of data set: ADME, Microsome. For orientation: Microsomes from liver hold many membrane-bound enzymes, among them those of drug oxidation.

Data set [8] is described as follows: AUC (0 to 48 hrs) in Sprague-Dawley rat at 3 mg/kg, po administered as single dose via gavage by LC-MS/MS analysis. The following applies: in vivo. The class given is ADME, organism-based. Further details: dose 3 mg/kg, time < 48 hr, route oral.
A short description of data set [9]: Intrinsic metabolic stability in rat liver microsomes assessed as metabolic turnover over per mg protein at 1 uM preincubated for 5 mins followed by NADPH cofactor addition and measured after 30 mins by LC-MS/MS analysis. Type of data set: ADME, Microsome. The settings on record: 0.5 h.
Data set [10] in a line: Cmax in Sprague-Dawley rat at 3 mg/kg, po administered as single dose via gavage by LC-MS/MS analysis. Type of data set: ADME, organism-based. Further details: dose 3 mg/kg, route oral. The settings on record: in vivo.

A word on the pIC50: it is the negative decadic logarithm of the IC50, by convention in mol/L. Read a high pIC50 as a small IC50. In general, bioavailability refers to the share of a dose that reaches the circulation, judged against a reference dose that is usually intravenous. Low values mean poor availability, high ones good availability. For orientation: clearance means the volume of plasma or blood freed of the substance per unit of time. As usually defined, the AUC(0-t) is the area under the concentration-time curve up to a stated or last time point. The term Cmax denotes the maximum level reached in the sampled fluid or tissue. `O=C(NC1CCC(=Cc2cccc(Oc3ccc(C(F)(F)F)cn3)c2)CC1)c1cnc2[nH]ccc2c1` (racemic) showed a pIC50 in data set [1] of 7.76. The same compound came in with a bioavailability in data set [2] of 7.2%. Further, in data set [3], the clearance turned out to be 2.2 mL/min/kg. The AUC(0-t) at 48 h turned out to be 14.3 µM·h in [4] and 3 µM·h in data set [8]. For the same compound, the Vd in data set [5] came out at 1 L/kg. Besides, in data set [6], the half-life is 7.3 h. Also, the Drug metabolism in data set [7] turned out to be 0.08 nmol/min/mg; in [9], 0.04 nmol/min/mg. In addition, in data set [10], the Cmax stood at 190 nM.
